Where a name gives a salt, the structure may show the parent alone.
What was measured:
gastric acid secretion = assay: Gastric anti-secretion activity, pylorus-ligated rat (Shay method); assay type: in vivo; conditions: intraduodenal, male Sprague Dawley rats, pylorus ligature, 4 hours
Description: The gastric anti-secretion activity of the compounds of the invention was tested according to the method described by Shay et al. (H. Shay, D. C. Sun, M. Gruenstein, Gastroenterology, 26, 906 [1954]). Thus, male Sprague Dawley rats weighing around 200 g with free access to water are made to fast 24 hours before the experiments. Ligatures are made on the pylora under ether anesthesia and the medications to be tested are simultaneously administered either by the intraperitoneal route (i.p.) or by intraduodenal route (i.d.). The abdomen is closed again and the animals are sacrificed after four hours. The gastric secretion is recovered and centrifuged at 1,500 g for 15 minutes; the volume of the supernatant is measured and the acidity is determined by automatic titration of 0.05 N sodium hydroxide. A control group is included for each experiment.
The dose necessery for 50% inhibition (ED50) of the acid secretion (X concentration of hydrochloric acid by volume) is calculated using the method described by Litchfield and Wilcoxon (J. T. Litchfield, F. A. Wilcoxon, J. Pharmacol., 96, 99 [1949]). The results obtained for compounds pounds representative of the invention are given in Table 3 and compared with the clinically used reference compounds: Pirenzepine (anti-cholinergic), Ranitidine (antagonist of histaminergic H2 receptors) and Omeprazole (proton pump inhibitor).

5-HT1A receptor = target: T1, 5-HT1A receptor (Rattus norvegicus, UniProt P19327); assay: Affinity for the 5-HT1A receptor: inhibition of [3H]8-OH-DPAT binding to rat cerebral cortex membranes; conditions: [3H]8-OH-DPAT 1 nM, 30 min at 25 deg. C.
T1 construct: Rat cerebral cortex membranes (10 mg by weight, moistened, per ml) are incubated with [3H]8-OH-DPAT (1 nM); from tissue; host or cells: rat cerebral cortex membranes (male Sprague Dawley rats)
T1 sequence (P19327 1-422): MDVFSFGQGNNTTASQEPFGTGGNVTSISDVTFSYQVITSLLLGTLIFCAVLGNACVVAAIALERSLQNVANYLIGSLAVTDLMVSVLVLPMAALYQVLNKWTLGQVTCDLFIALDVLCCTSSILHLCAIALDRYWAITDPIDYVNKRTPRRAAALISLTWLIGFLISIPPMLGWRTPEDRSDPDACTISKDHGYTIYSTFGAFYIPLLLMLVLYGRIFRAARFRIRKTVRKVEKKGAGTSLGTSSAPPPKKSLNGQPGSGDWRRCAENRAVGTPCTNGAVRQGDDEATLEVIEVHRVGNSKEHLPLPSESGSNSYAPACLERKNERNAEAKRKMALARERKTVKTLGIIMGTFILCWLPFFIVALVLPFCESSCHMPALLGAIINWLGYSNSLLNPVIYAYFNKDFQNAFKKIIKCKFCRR
Description: The affinity of the compounds for the 5-HT1A serotonergic receptors is determined by measuring the inhibition of [3H]8-hydroxy-2 (di-n-propylamino) tetralin([3H]8-OH-DPAT) connected with the cerebral cortex of the rat according to the method of Perutka et al. (J. Neurochem., 47,529 [1986]).
Cerebral cortices of male Sprague Dawley rats are homogenized in 50 mM Tris-HCl, pH—7.4, and centrifuged at 40,000 g for 10 min. at 4 degrees C. Pellets are put into suspension in the same buffer and incubated for 10 min. at 37 degrees C. and the homogenates are again centrifuged at 40,000 g for 10 min. at 4 degrees C.
Competitive inhibition tests of the bond of [3H]8-OH-DAPT are performed three times with unmarked competitors with concentrations ranging between 100 pM and 100 μM. Rat cerebral cortex membranes (10 mg by weight, moistened, per ml) are incubated with [3H]8-OH-DPAT (1 nM) for 30 min. at 25 deg. C. in Tris-HCl 50 mM, pH 7.4 comprising 4 mM of CaCl2, 10 μM of pargylin and 0.1% ascorbic acid.
The bonded [3H]8-OH-DPAT is separated from the free [3H]8-OH-DPAT by immediate filtration by means of Whatman GF/B fiberglass filters using a Brandel cell recoverer. The filters [filtrates?] are washed three times with the same buffer at 0-4 deg. C. and their radioactivity is determined by means of a liquid scintillation spectrometer.
The specific bond is obtained by subtracting the given bond in the presence of 1 μM of 8-OH-DPAT from the total bond. The bond characteristics are analyzed by interactive analysis of the nonlinear regression by computer using the Ligand program (Munson and Rodbard, Anal. Biochem., 107, 220 [1980]).

[1] = system: vomiting induced by cis-platinum; assay: Anti-emetic activity: inhibition of vomiting induced by cis-platinum in ferrets; assay type: in vivo, ferret; conditions: 30 minutes before cis-platinum 30 mg/kg i.v., ferrets observed six hours
Description: Inhibition induced by cis-platinum is evaluated in ferrets using a modification of the protocol described by Barnes et al. (J. M. Barnes, N. M. Barnes, B. Costall, R. J. Naylor, F. D. Tattersall, Neuropharmacology, 27[8], 783 [1988]). Thus, albino ferrets or European polecats of both sexes weighing between 0.5 kg and 1.5 kg are put under anesthesia with pentobarbitone (30-40 mg/kg i.p.) and a polyethylene injection tube is inserted into the left jugular vein. Two days later, the compounds being tested are administered i.v. 30 minutes before cis-platinum (30 mg/kg i.v.). The animals are observed for six hours and the number of vomitings is recorded. A control group is included for each experiment.

intestinal transit = assay: Effect on intestinal transit (charcoal meal) in rats; assay type: in vivo, rat; conditions: 30 minutes before charcoal, sacrificed after 15 minutes
Description: A compound of the invention was tested to determine its effect on the intestinal transit according to the method described by A. F. Green (Br. J. Pharmacol., 14, 26-34 [1959]). To male Sprague Dawley rats weighing approximately 200 g before being made to fast, there was administered (p.o.) a meal comprised of charcoal (10 g) and gum arabic (2.5 g) dissolved in 100 ml of distilled water. The animals were sacrificed after 15 minutes and the charcoal transit time was measured.
The product to be tested was administered (s.c.) 30 minutes before the administration of the charcoal.

gastric emptying = assay: Effect on gastric emptying (phenol red meal) in rats; assay type: in vivo, rat; conditions: sacrificed 15 minutes after phenol red meal
Description: A compound of the invention was tested for its effect on gastric emptying according to the method described by C. Scarpignato et al. (Arch. Int. Pharmacodyn., 246, 286-294 [1980]). Thus, 1.5 ml of a 1.5% methyl cellulose solution comprising phenol red (0.5 mg/ml) was administered orally to Sprague Dawley rats weighing approximately 200 g and previously subjected to fasting. The animals were sacrificed after 15 minutes and the pylora and the esophagi were tied off. The contents of the stomachs were collected in a teflon beaker containing a solution of soda (100 ml at 0.1 N) and the mixture was homogenized. The proteins were precipitated by addition of 0.5 ml of a 20% aqueous solution of trifluoroacetic acid to a 5 ml portion of homogenate. After centrifuging, the part of the solution rising to the top was separated and added to 4.5 ml of an aqueous solution of soda at 0.5 N and the phenol red content was determined by using a spectrophotometer at a wavelength of 560 nm.
The compound to be tested was administered (s.c.) 15 minutes […] the administration of phenol red.

| Compound | melting point [°C] | Ki (5-HT1A receptor) [nM] | also measured |
| --- | --- | --- | --- |
| COc1cccc(C(=O)NCCCCNCCOc2ccccc2OC)c1 (as salt: fumarate) [compound 14] | 68 to 70 | – | – |
| COc1ccccc1OCCNCCCCNC(=O)CC(C)(C)C (as salt: fumarate) [compound 33] | 130 to 132 | – | – |
| COc1ccccc1OCCNCCCCNC(=O)C1CCCCC1 (as salt: fumarate) [compound 34, N[4-{2-(2-methoxyphenoxy)ethyl}aminobutyl]cyclohexylamide] | 134 to 136 | – | – |
| COc1ccccc1OCCNCCCCNC(=O)C1(C)CCCCC1 (as salt: fumarate) [compound 45] | 120 to 122 | – | – |
| COc1ccccc1OCCNCCCCNC(=O)C1CCCCCC1 (as salt: fumarate) [compound 46, N[4-{2-(2-methoxyphenoxy)ethyl}aminobutyl]cycloheptylamide] | 125 to 126 | – | – |
| COc1ccccc1OCCNCCCCNC(=O)C1CC2CCC1C2 (stereo not drawn) (as salt: fumarate) [compound 50, N[4-{2-(2-methoxyphenoxy)ethyl}aminobutyl]2-bicyclo[2,2,1]heptylamide] | 130 to 131 | – | – |
| COc1ccccc1OCCNCCCCNC(=O)CC1CCCC1 (as salt: fumarate) [compound 59] | 118 to 119 | – | – |
| CCOc1ccccc1OCCNCCCCNC(=O)C(C)(C)C (as salt: fumarate) [compound 64] | 131.5 to 133 | – | – |
| COc1ccccc1OCCNCCCCNC(=O)c1ccccn1 (as salt: salt) [compound 3] | 152 to 154 | – | – |
| COc1ccccc1OCCNCCCCNC(=O)c1ccc(F)cc1 (as salt: salt) [compound 23] | 119 to 120.5 | – | – |
| COc1ccccc1OCCNCCCCNC(=O)c1cccc(I)c1 (as salt: salt) [compound 30] | 121 to 121.5 | – | – |
| COc1ccccc1OCCNCCCCNC(=O)c1ccccc1 [Compound No. 1, N-[4-{2-(2-Methoxyphenoxy)ethyl}aminobutyl]benzamide] | – | 0.2 | ED50 (dose necessary for 50% inhibition of the acid secretion) (gastric acid secretion): 3.7 mg/kg i.d.; Percent Inhibition (vomiting) ([1]; 1.0 mg/kg iv): 40% |
| COc1ccccc1OCCNCCCCNC(=O)C12CC3CC(CC(C3)C1)C2 [Compound No. 2, N-[4-{-2-(2-Methoxyphenoxy)ethyl}aminobutyl]-1-adamantamide] | – | 0.1 | ED50 (dose necessary for 50% inhibition of the acid secretion) (gastric acid secretion): 3.6 mg/kg i.d. |
| CNC(=O)c1ccccc1OCCNCCCCNC(=O)c1ccccc1 [Compound No. 18] | – | – | ED50 (dose necessary for 50% inhibition of the acid secretion) (gastric acid secretion): 3.2 mg/kg i.d.; Charcoal Transit Time Compared to Control (intestinal transit; 0.3 mg/kg s.c.): +16%; Charcoal Transit Time Compared to Control (intestinal transit; 1.0 mg/kg s.c.): +20%; Effect on Gastric Emptying Time Compared to Control (gastric emptying; 0.3 mg/kg s.c.): +8%; Effect on Gastric Emptying Time Compared to Control (gastric emptying; 1.0 mg/kg s.c.): +18%; Effect on Gastric Emptying Time Compared to Control (gastric emptying; 3.0 mg/kg s.c.): +26%; Percent Inhibition (vomiting) ([1]; 1.0 mg/kg iv): 62% |
| CCN(CC)CCNC(=O)c1cc(Cl)c(N)cc1OC [Metoclopramide, reference compound] | – | – | Percent Inhibition (vomiting) ([1]; 1.0 mg/kg iv): 15% |
| COc1ccc2[nH]c([S+]([O-])Cc3ncc(C)c(OC)c3C)nc2c1 (stereo not drawn) [Omeprazole, reference compound] | – | – | ED50 (dose necessary for 50% inhibition of the acid secretion) (gastric acid secretion): 4.6 mg/kg i.d. |

| Compound | melting point [°C] | Ki (5-HT1A receptor) [nM] | also measured |
| --- | --- | --- | --- |
| Cc1nccn1CC1CCc2c(c3ccccc3n2C)C1=O (stereo not drawn) [Ondansetron, reference compound] | – | – | Percent Inhibition (vomiting) ([1]; 0.5 mg/kg iv): 62% |
| CN1CCN(CC(=O)N2c3ccccc3C(=O)Nc3cccnc32)CC1 [Pirenzepine, reference compound] | – | – | ED50 (dose necessary for 50% inhibition of the acid secretion) (gastric acid secretion): 14 mg/kg i.d. |
| CNC(=C[N+](=O)[O-])NCCSCc1ccc(CN(C)C)o1 [Ranitidine, reference compound] | – | – | ED50 (dose necessary for 50% inhibition of the acid secretion) (gastric acid secretion): 22 mg/kg i.d. |
| COc1ccccc1OCCNCCCCNC(=O)c1ccccn1 [compound 3] | – | 1.4 | – |
| CSc1ccccc1OCCNCCCCNC(=O)c1ccccc1 [compound 11] | – | 0.71 | – |
| COc1cccc(C(=O)NCCCCNCCOc2ccccc2OC)c1 [compound 14] | – | 1.6 | – |
| O=C(NCCCCNCCOc1ccccc1O)c1ccccc1 [compound 20, N[4-{2-(2-hydroxyphenoxy)ethyl}aminobutyl]benzamide] | – | 0.23 | ED50 (dose necessary for 50% inhibition of the acid secretion) (gastric acid secretion): 3.1 mg/kg i.d. |
| COc1ccccc1OCCNCCCCNC(=O)c1ccc(F)cc1 [compound 23] | – | 0.33 | – |
| COc1ccccc1OCCNCCCCNC(=O)c1cccc(I)c1 [compound 30] | – | 0.44 | – |
| COc1ccccc1OCCNCCCCNC(=O)CC(C)(C)C [compound 33] | – | 0.33 | – |
| COc1ccccc1OCCNCCCCNC(=O)C1CCCCC1 [compound 34, N[4-{2-(2-methoxyphenoxy)ethyl}aminobutyl]cyclohexylamide] | – | 0.087 | – |
| COc1ccccc1OCCNCCCCNC(=O)C1(C)CCCCC1 [compound 45] | – | 0.14 | – |
| COc1ccccc1OCCNCCCCNC(=O)C1CCCCCC1 [compound 46, N[4-{2-(2-methoxyphenoxy)ethyl}aminobutyl]cycloheptylamide] | – | 0.094 | – |
| COc1ccccc1OCCNCCCCNC(=O)C1CC2CCC1C2 (stereo not drawn) [compound 50, N[4-{2-(2-methoxyphenoxy)ethyl}aminobutyl]2-bicyclo[2,2,1]heptylamide] | – | 0.071 | – |
| COc1ccccc1OCCNCCCCNC(=O)CC1CCCC1 [compound 59] | – | 0.65 | – |
| CCOc1ccccc1OCCNCCCCNC(=O)C(C)(C)C [compound 64] | – | 0.77 | – |
